Data taken from patent US12583851B2, “Heteroaryl-substituted pyrazine derivatives as pesticides” (Elanco Animal Health GmbH, priority 2019, dated 2026).

What was measured:
Type in all cases: in vivo
[1] = tested on: Rhipicephalus (Boophilus) microplus larvae (strain Parkhurst, resistant against synthetic pyrethroids); assay: Rhipicephalus (Boophilus) microplus in-vitro contact test, larval cattle tick; settings: after 48 hours, read-out: efficacy (larvae dead or moribund); for pest or weed control at 1 µg/cm2, 100 g/ha: 1 μg/cm^2 (=100 g/ha); for pest or weed control at 5 µg/cm2, 500 g/ha: 5 μg/cm^2 (=500 g/ha)
Outline: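 Acetone solutions were coated onto glass tube walls (900 ppm gives 5 μg/cm²); after drying, 20–50 pyrethroid-resistant Parkhurst larvae added and held at 27 °C, 85% RH. At 48 h, efficacy as % larvae dead or moribund, judged by loss of negative geotaxis.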

[2] = tested on: adult cat fleas (Ctenocephalides felis); assay: Ctenocephalides felis in-vitro contact test, adult cat flea; settings: after 48 hours, read-out: efficacy (fleas dead or moribund); for pest or weed control at 1 µg/cm2, 100 g/ha: 1 μg/cm^2 (=100 g/ha); for pest or weed control at 5 µg/cm2, 500 g/ha: 5 μg/cm^2 (=500 g/ha)
Method: Ctenocephalides felis—In-Vitro Contact Tests Adult Cat Flea
(§1) 9 mg compound is solved in 1 ml acetone and diluted with acetone to the desired concentration. 250 μL of the test solution is filled in 25 mL glass test tubes and homogeneously distributed on the inner walls by rotation and tilting on a shaking device (2 h at 30 rpm). With a compound concentration of 900 ppm, an inner surface of 44.7 cm^2 and a homogeneous distribution, a dose of 5 μg/cm^2 is achieved.
(§2) After the solvent has evaporated, each test tube is filled with 5-10 adult cat fleas (Ctenocephalides felis), closed with a perforated lid and incubated in a lying position at room temperature and relative humidity. After 48 hours efficacy is determined. The fleas are patted on the ground of the tubes and are incubated on a heating plate at 45-50° C. for at most 5 minutes Immotile or uncoordinated moving fleas, which are not able to escape the heat by climbing upwards, are marked as dead or moribund.
An efficacy of 100% means all fleas are dead or moribund; 0% means no fleas are dead or moribund.

[3] = tested on: adult brown dog ticks (Rhipicephalus sanguineus); assay: Rhipicephalus sanguineus in-vitro contact test, adult brown dog ticks; settings: 48 h, after 48 hours, read-out: efficacy (ticks dead or moribund); for pest or weed control at 5 µg/cm2, 500 g/ha: 5 μg/cm^2 (=500 g/ha)
Method: Rhipicephalus sanguineus—In-Vitro Contact Tests with Adult Brown Dog Ticks
as §1, with “mL” for “ml”, “[…]” for “250 μL”
as §2, with “brown dog ticks (Rhipicephalus sanguineus),” for “cat fleas (Ctenocephalides felis),”, “ticks” for “fleas”, “ticks,” for “fleas,”
An efficacy of 100% means all ticks are dead or moribund; 0% means no ticks are dead or moribund.

[4] = tested on: larvae of the banded cucumber beetle (Diabrotica balteata); assay: Diabrotica balteata spray test; settings: 168 h, after 7 days, read-out: efficacy (seedling growth); for pest or weed control at 32 µg/disc, 100 g/ha: 100 g/ha (=32 μg/well); for pest or weed control at 6.4 µg/disc, 20 g/ha: 20 g/ha (=6.4 μg/well)
Outline: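 Germinated wheat seedlings (5 per well, on agar) sprayed with compound in acetone/DMF with emulsifier-containing water, then infested with 10–20 Diabrotica balteata larvae. Efficacy (%) scored after 7 days from seedling growth: 100% = growth as untreated uninfested control, 0% = no seedlings grown.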

[5] = tested on: fall armyworm larvae (Spodoptera frugiperda); assay: Spodoptera frugiperda spray test; settings: 168 h, maize leaf sections, after 7 days
Outline: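 Compound dissolved in acetone/dimethylformamide, diluted in water containing 1000 ppm alkylarylpolyglycol ether emulsifier and sprayed onto maize leaf sections. Dried sections were infested with larvae; % mortality scored after 7 days (100% = all caterpillars killed, 0% = none).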

Row | SMILES | pest or weed control at 1 µg/cm2, 100 g/ha [1] [%] | pest or weed control at 5 µg/cm2, 500 g/ha [1] [%] | pest or weed control at 1 µg/cm2, 100 g/ha [2] [%] | pest or weed control at 5 µg/cm2, 500 g/ha [2] [%] | pest or weed control at 5 µg/cm2, 500 g/ha [3] [%] | pest or weed control at 32 µg/disc, 100 g/ha [4] [%] | mortality at 100 g/ha [5] [%] | pest or weed control at 1 µg/cm2, 100 g/ha ([3]; 1 μg/cm^2 (=100 g/ha)) [%] | pest or weed control at 6.4 µg/disc, 20 g/ha [4] [%]
1 | CCNC(=O)c1ccc(-c2nccnc2C(C)NC(=O)c2cc(C(F)(F)F)cc(C(F)(F)F)c2)nc1 (racemic) [Example I-35, (rac)-6-(3-{1-[3,5-Bis(trifluoromethyl)benzamido]ethyl}pyrazin-2-yl)-N-ethylpyridine-3-carboxamide] | 100 | 100 | 80 | 100 |  |  |  |  | 
2 | CC(NC(=O)c1cc(C(F)(F)F)cc(C(F)(F)F)c1)c1nccnc1-c1ncc(C(=O)N2CCCOCC2)s1 (racemic) [Example I-68, (rac)-N-[1-{3-[5-(1,4-Oxazepane-4-carbonyl)-1,3-thiazol-2-yl]pyrazin-2-yl}ethyl]-3,5-bis(trifluoromethyl)benzamide] | 100 | 100 | 100 | 100 | 100 | 100 |  |  | 
3 | CC(NC(=O)c1cc(Br)cc(OC(F)(F)F)c1)c1nccnc1-n1cc(C(F)(F)F)cn1 (racemic) [Example I-94, (rac)-3-Bromo-5-(trifluoromethoxy)-N-[1-{3-[4-(trifluoromethyl)-1H-pyrazol-1-yl]pyrazin-2-yl}ethyl]benzamide] | 100 | 100 |  |  | 80 | 100 | 100 |  | 
4 | CC(NC(=O)c1cc(C(F)(F)F)cc(C(F)(F)F)c1)c1nccnc1-c1ccc(C(=O)N(C)CC2CC2)cn1 (racemic) [Example I-32, (rac)-6-(3-{1-[3,5-Bis(trifluoromethyl)benzamido]ethyl}pyrazin-2-yl)-N-(cyclopropylmethyl)-N-methylpyridine-3-carboxamide] | 100 | 100 |  | 100 |  |  | 100 |  | 
5 | CC(NC(=O)c1cc(Cl)cc(C(F)(F)F)c1)c1nccnc1-c1ncc(C(=O)N2CCOCC2)s1 (racemic) [Example I-59, (rac)-3-Chloro-N-[1-{3-[5-(morpholine-4-carbonyl)-1,3-thiazol-2-yl]pyrazin-2-yl}ethyl]-5-(trifluoromethyl)benzamide] | 100 | 100 |  |  | 100 | 100 | 83 |  | 
6 | CC(NC(=O)c1cc(C(F)(F)F)cc(C(F)(F)F)c1)c1nccnc1-n1cc(C(=O)N2C[C@@H](C)O[C@@H](C)C2)cn1 (mixture of isomers) [Example I-138, (rac)-N-[1-(3-{4-[(cis)-2,6-Dimethylmorpholine-4-carbonyl]-1H-pyrazol-1-yl}pyrazin-2-yl)ethyl]-3,5-bis(trifluoromethyl)benzamide] | 100 | 100 |  |  | 100 | 100 | 100 | 100 | 
7 | CC(NC(=O)c1cc(Br)cc(C#N)c1)c1nccnc1-c1ccc(Cl)cn1 (racemic) [Example I-48, (rac)-3-Bromo-N-{1-[3-(5-chloropyridin-2-yl)pyrazin-2-yl]ethyl}-5-cyanobenzamide] |  |  |  |  | 80 | 100 | 100 |  | 80
8 | COc1ccc(-c2nccnc2C(C)NC(=O)c2cc(Br)cc(OC(F)(F)F)c2)nc1 (centres unmarked) [Example I-27] | 90 | 80 | 80 | 80 |  | 100 |  |  | 
9 | CCN(C)C(=O)c1cnc(-c2nccnc2C(C)NC(=O)c2cc(C(F)(F)F)cc(C(F)(F)F)c2)s1 (racemic) [Example I-72, (rac)-2-(3-{1-[3,5-Bis(trifluoromethyl)benzamido]ethyl}pyrazin-2-yl)-N-ethyl-N-methyl-1,3-thiazole-5-carboxamide] | 100 | 100 |  |  | 80 | 100 | 100 |  | 100
10 | CC(NC(=O)c1cc(Cl)cc(Br)c1)c1nccnc1-c1ccc(Cl)cn1 (centres unmarked) [Example I-19] |  |  |  | 80 |  | 100 | 100 |  | 100
11 | CC(NC(=O)c1cc(Br)cc(C(F)(F)F)c1)c1nccnc1-c1ncc(C(=O)N(C)CC2CC2)s1 (racemic) [Example I-119, (rac)-2-(3-{1-[3-Bromo-5-(trifluoromethyl)benzamido]ethyl}pyrazin-2-yl)-N-(cyclopropylmethyl)-N-methyl-1,3-thiazole-5-carboxamide] | 100 | 100 |  | 90 |  | 100 | 100 |  | 100
12 | CC(NC(=O)c1cc(Br)cc(OC(F)(F)F)c1)c1nccnc1-c1ncc(C(=O)N2CCOCC2)s1 (racemic) [Example I-61, (rac)-3-Bromo-N-[1-{3-[5-(morpholine-4-carbonyl)-1,3-thiazol-2-yl]pyrazin-2-yl}ethyl]-5-(trifluoromethoxy)benzamide] | 100 | 100 | 100 | 100 |  |  |  |  | 
13 | CC(NC(=O)c1cc(Br)cc(C(F)(F)F)c1)c1nccnc1-c1ncc(C(=O)N(C)C)s1 (racemic) [Example I-118, (rac)-2-(3-{1-[3-Bromo-5-(trifluoromethyl)benzamido]ethyl}pyrazin-2-yl)-N,N-dimethyl-1,3-thiazole-5-carboxamide] | 100 | 100 |  | 90 |  | 100 | 100 |  | 100
14 | CC(NC(=O)c1cc(Br)cc(C#N)c1)c1nccnc1-c1ccc(C(=O)N2CCOCC2)cn1 (racemic) [Example I-33, (rac)-3-Bromo-5-cyano-N-[1-{3-[5-(morpholine-4-carbonyl)pyridin-2-yl]pyrazin-2-yl}ethyl]benzamide] | 90 | 100 | 100 | 100 |  |  |  |  | 
15 | CC(NC(=O)c1cc(C(F)(F)F)cc(C(F)(F)F)c1)c1nccnc1-n1cc(C#N)cn1 (racemic) [Example I-100, N-{(rac)-1-[3-(4-Cyano-1H-pyrazol-1-yl)pyrazin-2-yl]ethyl}-3,5-bis(trifluoromethyl)benzamide] | 100 | 100 |  |  |  | 100 | 100 |  | 100
